Test results reported in ChEMBL document CHEMBL1201862, “PubChem BioAssay data set” (2004).
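Test compounds were applied to cells in 96-well plates for 48 hours at 5 doses. GI50 = concentration required for 50% inhibition of growth.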 Calls of active or inactive are those of the source. No stated cut-off is given here; in the data, active = GI50 up to about 1.1 µM and inactive = higher.

Columns and labels:
Assay in all cases: NCI-60 cell line screen, 48 h
U-251 = system: U-251
HT-29 = system: HT-29
HCT-15 = system: HCT-15
RPMI-8226 = system: RPMI-8226
ACHN = system: ACHN
HOP-62 = system: HOP-62
CCRF-CEM = system: CCRF-CEM
A549 = system: A549
SF-268 = system: SF-268
K562 = system: K562
SF-539 = system: SF-539
SNB-19 = system: SNB-19
SN12C = system: SN12C
SR = system: SR
RXF 393 = system: RXF 393

| SMILES | GI50 (U-251) | GI50 (HT-29) | GI50 (HCT-15) [µM] | GI50 (RPMI-8226) | GI50 (ACHN) | GI50 (HOP-62) | GI50 (CCRF-CEM) | GI50 (A549) | GI50 (SF-268) | GI50 (K562) | GI50 (SF-539) | GI50 (SNB-19) | GI50 (SN12C) | GI50 (SR) | GI50 (RXF 393) |
| --- | --- | --- | --- | --- | --- | --- | --- | --- | --- | --- | --- | --- | --- | --- | --- |
| N#Cc1c(-c2ccccc2)cc(-c2cccs2)c(C#N)c1N | > 100 µM (inactive) | > 100 µM (inactive) | > 100 | > 100 µM (inactive) | > 100 µM (inactive) | > 100 µM (inactive) | > 100 µM (inactive) | > 100 µM (inactive) | > 100 µM (inactive) | > 100 µM (inactive) | > 100 µM (inactive) | > 100 µM (inactive) | > 100 µM (inactive) |  |  |
| COc1cc2cccc(NC(=O)c3cc(OC)c(OC)c(OC)c3Br)c2cc1OC | 22.3 µM (inactive) | 21.8 µM (inactive) |  | 2.45 µM (inactive) | 11.5 µM (inactive) | 17.3 µM (inactive) | 4.56 µM (inactive) | 14.1 µM (inactive) | 18.5 µM (inactive) | 12.5 µM (inactive) | 15.4 µM (inactive) | 14.2 µM (inactive) | 16.6 µM (inactive) |  |  |
| CC(=O)CN(Cc1cc(C)c2c(c1)c1ccccc1n2Cc1ccccc1)S(=O)(=O)c1ccc(C)cc1 |  | > 100 µM (inactive) |  | > 100 µM (inactive) |  | > 100 µM (inactive) | > 100 µM (inactive) | > 100 µM (inactive) | > 100 µM (inactive) | > 100 µM (inactive) | > 100 µM (inactive) | > 100 µM (inactive) |  | > 100 µM (inactive) |  |
| Clc1ccc(SC(/C=C/NNC2=NN=C(c3ccccc3)C(c3ccccc3)N2)c2ccccc2)cc1 (stereo unspecified) | 31.2 µM (inactive) | 15.1 µM (inactive) | 26.9 | 6.64 µM (inactive) | 21 µM (inactive) | 33 µM (inactive) | 17.1 µM (inactive) | 29.2 µM (inactive) | 14.4 µM (inactive) | 18.2 µM (inactive) | 26.4 µM (inactive) | 80.5 µM (inactive) | 29.4 µM (inactive) |  | 6.28 µM (inactive) |
| COCCOCOc1ccc(OCOCCOC)c2c1C(=O)c1ccccc1C2=O | 41.9 µM (inactive) | 37.2 µM (inactive) | 30.3 |  | 62.7 µM (inactive) | > 100 µM (inactive) | 27 µM (inactive) | 46.6 µM (inactive) | 31.3 µM (inactive) | 24.7 µM (inactive) | 36.3 µM (inactive) | > 87.9 µM (inactive) | 51.4 µM (inactive) |  | 29.4 µM (inactive) |
| OC1C2CCC1C1C3C=CC(C3)C21 (stereo unspecified) | > 100 µM (inactive) | > 100 µM (inactive) | 77.4 | 42.9 µM (inactive) | 95.9 µM (inactive) | > 100 µM (inactive) | 39.6 µM (inactive) | 57 µM (inactive) | > 100 µM (inactive) | 70.6 µM (inactive) |  | > 100 µM (inactive) |  | 54.7 µM (inactive) | 47 µM (inactive) |
| CC(=O)Nc1ccc(/C=C(\NC(=O)c2ccccc2)c2nc3ccc4c(c3[nH]2)C(=O)c2ccccc2C4=O)cc1 | 16.4 µM (inactive) | 45.6 µM (inactive) | 39.2 | 4.46 µM (inactive) |  | > 100 µM (inactive) | 0.904 µM (active) | 12.5 µM (inactive) | 5.94 µM (inactive) | 19.9 µM (inactive) | 17.5 µM (inactive) | 35.2 µM (inactive) | 25.4 µM (inactive) |  | 4.66 µM (inactive) |
| COc1cc2c(cc1O)[C@H](C)C(c1ccc(OC)c(OC)c1)O2 (stereo partly specified) | 5.87 µM (inactive) | 18 µM (inactive) | 3.08 | 8.2 µM (inactive) | 10.6 µM (inactive) | 9.46 µM (inactive) | 6.21 µM (inactive) | 7.24 µM (inactive) | 44.4 µM (inactive) | 2.98 µM (inactive) | 4.85 µM (inactive) | 1.68 µM (inactive) |  |  | 11.7 µM (inactive) |
